Results from patent US4117230A, “Hydantoin derivatives as therapeutic agents” (priority 1977, dated 1978).
Where a name gives a salt, the structure may show the parent alone.

Columns and labels:
[1] = biological target: T1, aldose reductase (Bos taurus, UniProt P16116); assay: inhibition of aldose reductase enzyme activity (procedure of S. Hayman et al., modified by K. Sestanj et al.); format: biochemical, calf
T1 construct: partially purified aldose reductose enzyme obtained from calf lens; from tissue; host or cells: calf lens
Experimental: (§1) The activity of the compounds of the present invention, as agents for the control of chronic diabetic complications, is determined by their ability to successfully pass one or more of the following standard biological and/or pharmacological tests, viz., (1) measuring their ability to inhibit the enzyme activity of isolated aldose reductase; (2) measuring their ability to reduce or inhibit sorbitol accumulation in the sciatic nerve of acutely sterptozotocinized (i.e., diabetic) rats; (3) measuring their ability to reverse already-elevated sorbitol levels in the sciatic nerve and lens of chronic streptozotocin-induced diabetic rats; (4) measuring their ability to prevent or inhibit galactitol formation in the lens of acutely galactosemic rats, and (5) measuring their ability to delay cataract formation and reduce the severity of lens opacities in chronic galactosemic rats.
Hayman et al., as described in the Journal of Biological Chemistry, Vol. 240, p. […] In every case, the substrate employed ws partially purified aldose reductose enzyme obtained from calf lens.

[2] = test system: sorbitol accumulation in the sciatic nerve of streptozotocinized (i.e., diabetic) rats; assay: inhibition of sorbitol accumulation in the sciatic nerve of acutely streptozotocinized (diabetic) rats; format: in vivo, rat; details: measured at 27 h, vs untreated
Experimental: as §1
The following spiro-hydantoin compounds of Preparation C and Examples I-V, VII-IX, XI-XVII, XIX-XXV, XXVII and XXX-XXXIII, respectively, were tested for their ability to reduce or inhibit sorbitol accumulation in the sciatic nerve of streptozotocinized (i.e., diabetic) rats by the procedure essentially described in U.S. Pat. No. 3,821,383. In the present study, the amount of sorbitol accumulation in the sciatic nerves was measured 27 hours after induction of diabetes. The compounds were administered orally at the dose levels indicated at 4, 8 nd 24 hours following the administration of streptozotocin. The results obtained in this manner are presented below in terms of percent inhibition (%) afforded by the test compound as compared to the case where no compound was administered (i.e., the untreated animal where sorbitol levels normally rise from approximately […]. tissue to as high as […]. tissue in the 27-hour test period): […]

[3] = test system: sorbitol levels in the sciatic nerve and the lens of streptozotocin-induced diabetic rats; assay: reversal of already-elevated sorbitol levels in sciatic nerve and lens of chronic streptozotocin-induced diabetic rats; format: in vivo, rat; details: 2.5 mg./kg. orally twice a day, seven days; two weeks after streptozotocin 65 mg./kg. i.v.; three hours post dose
Experimental: as §1
6-Fluoro-spiro-[chroman-4,4'-imidazolidine]-2',5'-dione (the product of Example XXII) was tested for its ability to reverse already-elevated sorbital levels in streptozotocininduced diabetic rats of two weeks duration (i.e., chronic) by administering said compound orally to the animals for a period of seven days. In this study, the sorbital determinations were carried out in both the sciatic nerve and the lens. Streptozotocin was first administered to the animals at 65 mg./kg., via the intravenous route. […]

[4] = test system: galactitol formation in acutely galactosemic rats (lens); assay: inhibition of galactitol formation in the lens of acutely galactosemic rats; format: in vivo, rat; details: 30% galactose diet, seven days
Experimental: as §1
The ability of 6-fluoro-spiro-[chroman-4,4'-imidazolidine]-2',5'-dione to prevent or inhibit galactitol formation in acutely galactosemic rats was determined by administering said compound to the animals, via their feed, for a period of seven days. In this study, normal male rats were first divided into groups of six animals each and then fed a 30% galactose diet together with the compound to be administered at three different dosage levels. […]

[5] = test system: cataract formation in galactosemic rats; assay: delay of cataract formation in galactosemic rats (incidence of lenticular opacities); format: in vivo, rat; details: 30% galactose diet
Experimental: as §1
(§2) To determine the effect of 6-fluoro-spiro-[chroman-4,4'-imidazolidine]-2',5'-dione on cataract formation in galactosemis, rats were fed a 30% galactose diet with and without this compound for a period of 29 days and eye examinations also were routinely conducted approximately twice a week throughout this period. The experimental animals received the test compound mixed in the food at concentration levels necessary to afford approximate doses of 10 mg./kg. and 20 mg./kg., respectively. Control animals received the galactose diet alone (i.e., without the compound). […] The corresponding value obtained in rats receiving the test compound at 20 mg./kg. was 0%.

[6] = test system: lenticular opacities in galactosemic rats; assay: severity of lenticular opacities in galactosemic rats (percentage of lens area involved); format: in vivo, rat; details: for lenses with area of involvement never less than 10%: 17 days, control 75%
Experimental: as §1, §2
The effectiveness of 6-fluoro-spiro-[chroman-4,4'-imidazolidine]-2',5'-dione in delaying cataract development in rats is further highlighted by the test producedure of Example XLIV by giving careul consideration to the severity of the lenticular opacities involved. In this study, the percentage of lens areas involved were monitored throughout the 29-day period and the results obtained served as an index of severity. […]

[7] = test system: sorbitol levels in diabetic rats; assay: control of sorbitol formation in diabetic rats, oral route (summary statement); format: in vivo, rat; details: 0.75 mg./kg. to 20 mg./kg.
Excerpt: As previously indicated, the spiro-hydantoin compounds of this invention are all readily adapted to therapeutic use as aldose reductase inhibitors for the control of chronic diabetic complications, in view of their ability to reduce lens sorbitol levels in diabetic subjects to a staistically significant degree. […] The other compounds of this invention also cause similar results. Furthermore, all the herein described compounds of this invention can be administered by either the oral or parenteral routes of administration, for the present purposes at hand, without causing any significant untoward pharmacological side reactions to occur in the subject to whom they are so administered. In general, these compounds are ordinarily administered in dosages ranging from about 0.1 mg. to about 10 mg. per kg. of body weight per day, although variations will necessarily occur depending upon the weight and condition of the subject being treated and the particular route of administration chosen.

[8] = test system: sorbitol levels in the sciatic nerve and lens of diabetic subjects; assay: lowering of sorbitol levels in sciatic nerve (peripheral nerves) and lens of diabetic subjects (summary statement); format: in vivo; details: qualitative statement
[9] = test system: galactitol levels in the lens of galactosemic subjects; assay: lowering of galactitol levels in the lens of galactosemic subjects (summary statement); format: in vivo; details: qualitative statement
[10] = format: physicochemical
Experimental: The sodium salt of 6-fluoro-spiro-[chroman-4,4'-imidazolidine]-2',5'-dione is prepared by dissolving said compound in water containing an equivalent amount in moles of sodium hydroxide and then freeze-drying the mixture.

## O=C1NC(=O)C2(CCOc3ccc(F)cc32)N1 (stereo not shown) [Ex. XXII, 6-fluoro-spiro[chroman-4,4'-imidazolidine]-2',5'-dione]
[1]; 10^-4 M, calf lens enzyme, read-out: Percent inhibition of aldose reductase enzyme activity
  inhibition at 100 µM: 84%
[1]; 10^-5 M, calf lens enzyme, read-out: Percent inhibition of aldose reductase enzyme activity
  inhibition at 10 µM: 58%
[1]; 10^-6 M, calf lens enzyme, read-out: Percent inhibition of aldose reductase enzyme activity
  inhibition at 1 µM: 52%
[1]; 10^-7 M, calf lens enzyme, read-out: Percent inhibition of aldose reductase enzyme activity
  inhibition at 0.1 µM: 3%
[1]; qualitative statement
  aldose reductase inhibitory activity (in words): highly potent
[2]; 0.75 mg./kg. orally at 4, 8 and 24 h after streptozotocin
  Percent inhibition of sorbitol accumulation in the sciatic nerve: 45%
[2]; 1.5 mg./kg. orally at 4, 8 and 24 h after streptozotocin
  Percent inhibition of sorbitol accumulation in the sciatic nerve: 72%
[3]
  reduction in sorbitol levels in the lens: 71%
  reduction in sorbitol levels in the sciatic nerve: 68%
[4]; 10 mg./kg. in feed
  inhibition of galactitol values in the lens: 40%
[4]; 20 mg./kg. in feed
  inhibition of galactitol values in the lens: 72%
[5]; 20 mg./kg., 29-day mark
  delay in cataract formation: an impressive delay in cataract formation was still observed at the 29-day mark
[5]; 22-day mark, 10 mg./kg. in food
  eyes with lenticular opacities: greater than 90%
[5]; 29-day mark, 20 mg./kg. in food
  eyes with lenticular opacities: 37%
[5]; 17 days, 10 mg./kg. in food, control 100%
  eyes with lenticular opacities: 6%
[5]; 17 days, 20 mg./kg. in food, control 100%
  eyes with lenticular opacities: 0%
[5]; after 8-14 days, either 10 mg./kg. or 20 mg./kg. in food, control 90% of eyes
  lenticular opacities in the eyes: no opacities being present
[5]; all treated groups (10 and 20 mg./kg.)
  delay in cataract formation: delay in cataract formation continued in all the treated groups until the 22-day mark
[6]; 10 mg./kg.
  lenses with area of involvement never less than 10%: 6%
[6]; 20 mg./kg.
  lenses with area of involvement never less than 10%: 0%
[6]; treated groups, including 29-day mark
  severity of lenticular opacities versus control group: always less than that found in the control group
[7]
  control (inhibition) of the formation of sorbitol levels (in words): to a significantly high degree
[8]
  lowering of sorbitol levels in sciatic nerve (peripheral nerves) and lens (in words): extremely effective
[9]
  lowering of galactitol levels in the lens (in words): extremely effective

## O=C1NC(=O)C2(CCOc3ccc(F)cc32)N1 (stereo not shown) [sodium salt of 6-fluoro-spiro-[chroman-4,4'-imidazolidine]-2',5'-dione]
[10]
  solubility in water: freely soluble in water
